Source: ChEMBL document CHEMBL1156024, “The first Hes1 dimer inhibitors from natural products” (Bioorg Med Chem Lett, 2009)
pIC50: −log10 of the molar value. Active and inactive are the calls of the source. No cut-off for these calls is given here.

How the values were obtained:
[1] = molecular target: T1, Transcription factor HES-1 (Mus musculus, UniProt P35428); experiment: Inhibition of Cy3-labeled mouse recombinant Hes1 (3-281) dimer formation expressed in Escherichia coli by microplate-based assay
T1 sequence (P35428 whole entry): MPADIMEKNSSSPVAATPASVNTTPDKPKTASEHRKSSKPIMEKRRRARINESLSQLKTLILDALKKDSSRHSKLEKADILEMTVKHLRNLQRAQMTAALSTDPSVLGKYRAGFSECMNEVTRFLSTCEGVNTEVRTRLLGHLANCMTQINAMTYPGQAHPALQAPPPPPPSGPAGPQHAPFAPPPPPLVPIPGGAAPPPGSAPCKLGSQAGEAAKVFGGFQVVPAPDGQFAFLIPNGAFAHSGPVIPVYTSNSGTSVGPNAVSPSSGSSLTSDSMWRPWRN

[2] = molecular target: T2, Transcription factor HES-1 (Mus musculus) (UniProt P35428); experiment: Inhibition of Cy3-labeled mouse recombinant Hes1 (3-281) dimer formation expressed in Escherichia coli at 100 uM by microplate-based assay
T2 sequence (whole entry): T1 sequence (P35428 whole entry)

[3] = molecular target: T2, Transcription factor HES-1 (Mus musculus); conditions: C3H 10T1/2, 50 uM
Description: Inhibition of mouse Hes1-mediated suppression of basic helix-loop-helix activator genes in C3H10T1/2 cells at 50 uM by luciferase transactivation assay

SMILES | pIC50 [1] | inhibition [2] | inhibition [3]
C/C=C1/[C@H]2OC=C(C(=O)O)[C@H]1CC(=O)OC[C@H](c1ccc(O)c(O)c1)OC[C@H]1O[C@@H](O2)[C@H](O)[C@@H](O)[C@@H]1O | 5.11 |  | 
COC(=O)c1[nH]c(C(=O)OC)c(-c2c[nH]c3ccccc23)c1-c1c[nH]c2ccccc12 |  | inactive | 
COc1cc([C@H]2c3c(cc(OC)c(O)c3OC)C[C@@H](CO)[C@@H]2CO[C@@H]2OC[C@@H](O)[C@H](O)[C@H]2O)cc(OC)c1O [LYONISIDE] | 4.32 |  | 
COC(=O)c1[nH]c(C(=O)OC)c(-c2c[nH]c3ccc(O)cc23)c1-c1c[nH]c2ccccc12 [LYCOGARUBIN B] | 4.78 |  | 
O=C(O)c1[nH]c(C(=O)O)c(-c2c[nH]c3ccccc23)c1-c1c[nH]c2ccccc12 [LYCOGALIC ACID A] | 5.22 |  | 60%
COc1cc([C@@H]2c3c(cc(OC)c(O)c3OC)C[C@H](CO)[C@H]2CO[C@@H]2OC[C@@H](O)[C@H](O)[C@H]2O)cc(OC)c1O [NUDIPOSIDE] | 5.02 |  | 
COC(=O)c1[nH]c(C(=O)O)c(-c2c[nH]c3ccccc23)c1-c1c[nH]c2ccccc12 |  | inactive | 
CCCC(=O)/C=C/C1=C(O)C(=O)c2cc(O)c(O)cc2C1=O [LINDBLADIONE] | 5.39 |  | 60%
O=C1NCc2c1c1c3ccccc3[nH]c1c1[nH]c3ccccc3c21 |  | inactive | 
